Results on 7 compounds are retold here after patent publication US20220403339A1, “3D HUMAN LIVER ORGAN MODEL CONSTRUCTING METHOD, 3D HUMAN LIVER ORGAN MODEL AND USE THEREOF” (priority 2020, published 2022).

The conditions of data set [1]: clinical classification; cited from earlier work.
For data set [2], the system named is human liver cancer cell lines hepG2. The class given is cell-based. Conditions: 100 μM drug; 3D model I-1 (hepG2, 2000 cells per micropore) vs 2D comparison model I; FIG. 8. On the procedure:
(§1) 3. […] In a long-time administration test of the 3D human liver organ model, 100 μM is administered once, and if repeated administration is required, a drug is changed in the middle and the concentration is maintained. Each 3D human liver organ model and each 2D liver organ model need to be provided with a blank group, a negative control group and a positive control group, and each group is provided with six replicate wells.
(§2) 4. […] After drug incubation is completed, the culture medium with the drugs is removed, 100 μL of a mixed solution of a cell titer blue stock solution and a complete culture medium in a ratio of 1:5 is added, incubation is conducted for 3 h at 37° C., and a detection wavelength is […]. For example, the Cell titer 3D glo is added to evaluate the ATP of the 3D liver model, so that the action effect of the drugs is evaluated. After drug incubation is completed, the culture medium with the drugs is removed, 100 μL of a mixed solution of a Cell titer 3D glo stock solution and a complete culture medium in a ratio of 1:1 is added, incubation is conducted for 0.5 h at normal temperature, and detection is conducted in a Luminescence mode. For example, a high-content imaging technology is used for imaging characterization of the number of living and dead cells, and characterization of cell mitochondrial activity and membrane potential to evaluate hepatotoxicity drugs. The embodiment is applicable to, but not limited to, the above characterization method.

Data set [3] concerns human primary liver cells. The settings on record: 100 μM drug; 3D model II-2 (human primary liver cells, 5000 cells per micropore) vs 2D comparison model II; FIG. 15. As to the method:
as §1, §2

On to `COc1ccccc1Oc1c(NS(=O)(=O)c2ccc(C(C)(C)C)cc2)nc(-c2ncccn2)nc1OCCO` [compound 5, bosentan], for which the “clinically confirmed hepatotoxicity class” value in data set [1] was “low-hepatotoxicity”. The “hepatotoxicity inhibition on the 3D liver organ model compared with the 2D liver organ comparison model” value in data set [2] and in data set [3] was “stronger hepatotoxicity inhibition” throughout.
Consider `CN(CCOc1ccc(CC2SC(=O)NC2=O)cc1)c1ccccn1` (stereo not drawn) [compound 6, rosiglitazone], for which the “clinically confirmed hepatotoxicity class” value in data set [1] was “low-hepatotoxicity”. Moreover, the “hepatotoxicity inhibition on the 3D liver organ model compared with the 2D liver organ comparison model” value in data set [2] and in data set [3] was “stronger hepatotoxicity inhibition” throughout.
As for `Cc1ccc(-c2cc(C(F)(F)F)nn2-c2ccc(S(N)(=O)=O)cc2)cc1` [compound 8, celecoxib], the “clinically confirmed hepatotoxicity class” value in data set [1] was “low-hepatotoxicity”. The “hepatotoxicity inhibition on the 3D liver organ model compared with the 2D liver organ comparison model” value in data set [2] is recorded as “stronger hepatotoxicity inhibition”.
On to `CN(C)[C@@H]1C(=O)C(C(N)=O)=C(O)[C@@]2(O)C(=O)C3=C(O)c4c(O)cccc4[C@@](C)(O)[C@H]3C[C@@H]12` [compound 9, tetracycline], for which the “clinically confirmed hepatotoxicity class” value in data set [1] is reported as “low-hepatotoxicity”. The “hepatotoxicity inhibition on the 3D liver organ model compared with the 2D liver organ comparison model” value in data set [3] is recorded as “stronger hepatotoxicity inhibition”.
Regarding `O=C(OCC(O)CO)c1ccccc1Nc1ccnc2cc(Cl)ccc12` (stereo not drawn) [compound 10, glafenine], in data set [1], the “clinically confirmed hepatotoxicity class” value is on record as “low-hepatotoxicity”. Also, in data set [3], the “hepatotoxicity inhibition on the 3D liver organ model compared with the 2D liver organ comparison model” value is listed as “stronger hepatotoxicity inhibition”.
Regarding `CN(C)CCC=C1c2ccccc2CCc2ccccc21` [compound 12, amitriptyline], the “clinically confirmed hepatotoxicity class” value in data set [1] was “low-hepatotoxicity”. Besides, the “hepatotoxicity inhibition on the 3D liver organ model compared with the 2D liver organ comparison model” value in data set [2] is reported as “stronger hepatotoxicity inhibition”.
Consider `CC(=O)Nc1ccc(O)cc1` [compound 15, paracetamol], for which, in data set [3], the “hepatotoxicity inhibition on the 3D liver organ model compared with the 2D liver organ comparison model” value is on record as “stronger hepatotoxicity inhibition”.
